What was measured:
5HT2A = 5HT2A (Homo sapiens, UniProt P28223); assay: Compound Binding Profiles: 5HT2A; settings: * = Estimated IC50
5HT2C = target: T1, 5HT2C (Homo sapiens, UniProt P28335); assay: Compound Binding Profiles: 5HT2C; settings: * = Estimated IC50
T1 sequence (P28335 33-458): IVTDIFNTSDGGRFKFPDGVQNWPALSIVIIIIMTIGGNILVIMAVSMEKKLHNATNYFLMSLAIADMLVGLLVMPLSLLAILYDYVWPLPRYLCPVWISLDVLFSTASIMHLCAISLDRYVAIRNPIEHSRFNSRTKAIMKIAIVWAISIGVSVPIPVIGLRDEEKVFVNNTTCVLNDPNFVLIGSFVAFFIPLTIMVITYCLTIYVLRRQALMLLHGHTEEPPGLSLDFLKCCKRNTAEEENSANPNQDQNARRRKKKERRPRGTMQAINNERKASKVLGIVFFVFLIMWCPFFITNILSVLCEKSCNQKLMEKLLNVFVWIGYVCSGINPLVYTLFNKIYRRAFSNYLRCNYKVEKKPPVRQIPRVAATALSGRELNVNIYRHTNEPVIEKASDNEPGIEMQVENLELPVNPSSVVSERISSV

D1 = D1 (Homo sapiens, UniProt P21728); assay: Compound Binding Profiles: D1; settings: read-out: D1 binding class
Chain of D1 (P21728 whole entry): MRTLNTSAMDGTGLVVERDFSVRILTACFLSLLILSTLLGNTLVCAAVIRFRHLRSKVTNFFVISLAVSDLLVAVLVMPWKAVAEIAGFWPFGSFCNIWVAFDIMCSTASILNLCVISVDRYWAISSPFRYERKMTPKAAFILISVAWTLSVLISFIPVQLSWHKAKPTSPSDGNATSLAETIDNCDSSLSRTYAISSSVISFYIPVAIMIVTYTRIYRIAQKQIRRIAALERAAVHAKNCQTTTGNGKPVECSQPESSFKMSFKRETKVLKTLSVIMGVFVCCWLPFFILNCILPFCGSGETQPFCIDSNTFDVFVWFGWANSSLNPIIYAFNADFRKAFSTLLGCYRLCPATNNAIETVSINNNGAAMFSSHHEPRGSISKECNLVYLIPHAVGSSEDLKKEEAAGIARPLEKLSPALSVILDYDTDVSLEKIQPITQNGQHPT

D4 = target: T2, D4 (Homo sapiens, UniProt P21917); assay: Compound Binding Profiles: D4; settings: read-out: D4 binding class
T2 sequence (P21917 1-419): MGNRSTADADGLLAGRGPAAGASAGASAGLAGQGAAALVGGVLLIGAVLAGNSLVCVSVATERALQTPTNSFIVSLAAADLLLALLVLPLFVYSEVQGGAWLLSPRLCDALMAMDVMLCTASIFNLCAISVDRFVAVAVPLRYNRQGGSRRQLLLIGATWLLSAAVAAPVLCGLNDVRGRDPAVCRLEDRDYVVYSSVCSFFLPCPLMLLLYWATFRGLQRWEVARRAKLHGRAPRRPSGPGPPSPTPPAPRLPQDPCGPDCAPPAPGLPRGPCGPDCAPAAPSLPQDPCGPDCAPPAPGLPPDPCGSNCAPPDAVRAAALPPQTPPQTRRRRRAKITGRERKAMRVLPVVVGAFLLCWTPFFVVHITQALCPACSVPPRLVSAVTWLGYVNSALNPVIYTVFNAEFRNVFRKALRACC

α1 = assay: Compound Binding Profiles: α1; settings: * = Estimated IC50
α2 = assay: Compound Binding Profiles: α2; settings: * = Estimated IC50
[1] = Oral pharmacokinetics in dogs; settings: dog, in vivo, oral administration 5 mg/kg
[2] = Oral pharmacokinetics in rodents; settings: in vivo, oral administration 5 mg/kg
[3] = Food intake and body weight in rats, sub-chronic dosing; assay type: in vivo; settings: sub-chronic dosing 10 and 30 mg/kg qd, i.p.
[4] = Food intake and body weight in mice, sub-chronic dosing; assay type: in vivo; settings: sub-chronic dosing 10 and 30 mg/kg qd, i.p.
[5] = tested on: more than 70 tested receptors; settings: versus 5-HT6
CYP1A2 = target: T3, CYP1A2 (Homo sapiens, UniProt P05177); assay: CYP inhibition CYP1A2
T3 sequence (P05177 1-516): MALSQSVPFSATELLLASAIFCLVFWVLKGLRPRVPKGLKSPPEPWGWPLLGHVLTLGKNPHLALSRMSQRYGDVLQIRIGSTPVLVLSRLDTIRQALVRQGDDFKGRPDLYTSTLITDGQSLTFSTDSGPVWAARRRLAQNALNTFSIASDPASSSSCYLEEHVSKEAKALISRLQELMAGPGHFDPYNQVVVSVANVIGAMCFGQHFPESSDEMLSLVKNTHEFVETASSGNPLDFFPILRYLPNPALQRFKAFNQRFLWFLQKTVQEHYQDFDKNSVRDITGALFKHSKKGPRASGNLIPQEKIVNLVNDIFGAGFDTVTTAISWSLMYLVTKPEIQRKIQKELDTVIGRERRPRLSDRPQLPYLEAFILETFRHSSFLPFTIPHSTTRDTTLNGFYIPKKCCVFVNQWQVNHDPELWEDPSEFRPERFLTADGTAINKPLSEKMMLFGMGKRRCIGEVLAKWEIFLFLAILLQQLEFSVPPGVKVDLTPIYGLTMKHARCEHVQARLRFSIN

CYP3A4 = CYP3A4 (Homo sapiens, UniProt P08684); assay: CYP inhibition CYP3A4
Chain of CYP3A4 (P08684 whole entry): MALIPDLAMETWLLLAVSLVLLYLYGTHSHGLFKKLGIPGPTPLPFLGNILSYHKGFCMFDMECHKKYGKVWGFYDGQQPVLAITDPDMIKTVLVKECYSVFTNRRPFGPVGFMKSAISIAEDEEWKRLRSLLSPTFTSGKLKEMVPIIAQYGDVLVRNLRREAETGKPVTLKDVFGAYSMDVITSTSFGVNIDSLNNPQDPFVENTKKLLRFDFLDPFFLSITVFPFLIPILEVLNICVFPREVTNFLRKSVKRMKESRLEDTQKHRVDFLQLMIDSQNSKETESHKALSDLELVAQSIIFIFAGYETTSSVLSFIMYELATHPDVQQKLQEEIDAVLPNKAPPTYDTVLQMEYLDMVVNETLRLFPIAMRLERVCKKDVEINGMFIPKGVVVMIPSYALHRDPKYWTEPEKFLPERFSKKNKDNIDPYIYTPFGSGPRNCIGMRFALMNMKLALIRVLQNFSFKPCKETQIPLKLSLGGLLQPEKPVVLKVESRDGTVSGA

CYP2D6 = CYP2D6 (Homo sapiens, UniProt P10635); assay: CYP inhibition CYP2D6
Chain of CYP2D6 (P10635 whole entry): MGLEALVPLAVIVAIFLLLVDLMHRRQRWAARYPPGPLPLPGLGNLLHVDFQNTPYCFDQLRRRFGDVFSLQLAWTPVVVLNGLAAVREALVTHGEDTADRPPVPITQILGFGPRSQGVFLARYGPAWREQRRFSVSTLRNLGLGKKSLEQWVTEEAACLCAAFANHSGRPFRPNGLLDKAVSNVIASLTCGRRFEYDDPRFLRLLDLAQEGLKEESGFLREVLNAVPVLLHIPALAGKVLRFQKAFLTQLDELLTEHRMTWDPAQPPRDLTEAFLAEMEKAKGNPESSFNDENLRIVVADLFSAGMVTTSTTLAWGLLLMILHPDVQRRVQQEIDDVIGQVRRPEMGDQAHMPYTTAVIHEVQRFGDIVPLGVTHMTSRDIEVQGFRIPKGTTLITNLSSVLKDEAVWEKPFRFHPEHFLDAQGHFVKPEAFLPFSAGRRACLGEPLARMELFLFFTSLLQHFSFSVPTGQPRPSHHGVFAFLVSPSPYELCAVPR

Chain of 5HT2A (P28223 whole entry, species assumed): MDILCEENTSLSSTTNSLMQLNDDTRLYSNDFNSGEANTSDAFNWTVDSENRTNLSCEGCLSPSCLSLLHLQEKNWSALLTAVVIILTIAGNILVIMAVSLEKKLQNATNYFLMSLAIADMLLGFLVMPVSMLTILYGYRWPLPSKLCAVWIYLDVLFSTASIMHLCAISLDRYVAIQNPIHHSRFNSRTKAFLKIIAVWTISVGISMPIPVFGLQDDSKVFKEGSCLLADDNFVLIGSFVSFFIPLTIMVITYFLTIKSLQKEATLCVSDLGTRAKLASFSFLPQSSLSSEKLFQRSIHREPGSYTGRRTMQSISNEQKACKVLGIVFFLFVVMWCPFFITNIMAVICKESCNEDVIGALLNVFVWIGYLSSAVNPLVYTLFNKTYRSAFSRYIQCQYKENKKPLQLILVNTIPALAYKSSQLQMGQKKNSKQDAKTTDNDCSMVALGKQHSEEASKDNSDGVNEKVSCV

Which results are given for `COc1cc(Cl)cc(C(C)Nc2cc(N3CCNCC3)ccc2S(C)(=O)=O)c1OC.Cl` (stereo not shown) [Compound A, [1-(5-Chloro-2,3-dimethoxy-phenyl)-ethyl]-(2-methanesulfonyl-5-piperazin-1-yl-phenyl)-amine hydrochloride]?
IC50 (5HT2A): 2.5 µM; IC50 (5HT2C): 3.8 µM; Ki (D1): 0.1 to 1 µM; Ki (D4): 0.1 to 1 µM; IC50 (α1): 24 µM; IC50 (α2): 23 µM; bioavailability ([1]; read-out: bioavailability F): 81%; half-life ([1]; read-out: half-life T1/2 (converted)): 5 h; bioavailability [2]: 38%; half-life [2]: 1.5 h; body weight [3]: significant reduction; food intake [3]: significant reduction; body weight [4]: significant reduction; food intake [4]: significant reduction; safety margin (selectivity) to more than 70 tested receptors [5]: > 100 fold; stability (HLM) (Stability in HLM): > 90 min; IC50 (CYP1A2): > 7.5 µM; IC50 (CYP3A4): > 7.5 µM; IC50 (CYP2D6): 7.81 µM
